Measured values as given in ChEMBL document CHEMBL1201862, “PubChem BioAssay data set” (2004).
Each block holds one compound with its values, some of them ahead of it. The source made the active and inactive calls.

Key:
Cytochrome P450 1A2 = biological target: T1, Cytochrome P450 1A2 (Homo sapiens, UniProt P05177);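 further: PubChem cytochrome P450 panel assay, CYP1A2 panel member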
T1 sequence (P05177 whole entry): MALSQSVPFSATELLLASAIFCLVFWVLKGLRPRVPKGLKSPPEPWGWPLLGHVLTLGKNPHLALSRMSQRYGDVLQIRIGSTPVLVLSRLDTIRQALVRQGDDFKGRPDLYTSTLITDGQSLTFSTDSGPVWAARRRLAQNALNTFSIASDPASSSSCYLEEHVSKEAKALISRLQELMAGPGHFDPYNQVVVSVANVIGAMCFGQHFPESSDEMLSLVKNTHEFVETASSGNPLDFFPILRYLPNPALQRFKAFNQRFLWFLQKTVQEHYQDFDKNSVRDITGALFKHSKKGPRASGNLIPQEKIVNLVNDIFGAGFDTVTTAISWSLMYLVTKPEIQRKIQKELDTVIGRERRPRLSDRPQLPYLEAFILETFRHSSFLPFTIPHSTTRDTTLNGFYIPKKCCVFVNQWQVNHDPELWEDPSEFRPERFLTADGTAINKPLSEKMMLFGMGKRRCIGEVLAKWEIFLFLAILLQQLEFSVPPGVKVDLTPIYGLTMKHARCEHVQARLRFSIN

[1] = biological target: T2, Corticotropin-releasing factor receptor 2/Corticotropin-releasing factor-binding protein (Homo sapiens, UniProt P24387+Q13324); assay: activators of CRF receptor 2 with binding protein – uHTS hits, confirmation (AID 602473); type: functional; details: read-out: EC50_Mean
T2 sequence (Q13324 whole entry): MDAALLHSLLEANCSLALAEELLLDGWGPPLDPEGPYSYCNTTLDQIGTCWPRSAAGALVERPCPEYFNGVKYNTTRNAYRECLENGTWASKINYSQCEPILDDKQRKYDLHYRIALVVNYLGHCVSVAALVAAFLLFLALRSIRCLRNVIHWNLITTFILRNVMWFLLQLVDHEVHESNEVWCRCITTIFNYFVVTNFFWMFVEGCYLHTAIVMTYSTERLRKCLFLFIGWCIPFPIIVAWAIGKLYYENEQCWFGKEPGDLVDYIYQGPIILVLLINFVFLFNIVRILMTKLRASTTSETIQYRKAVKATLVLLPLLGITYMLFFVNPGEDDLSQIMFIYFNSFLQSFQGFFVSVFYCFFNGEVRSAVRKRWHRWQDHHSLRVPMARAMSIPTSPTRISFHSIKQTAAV
T2 sequence (P24387 whole entry): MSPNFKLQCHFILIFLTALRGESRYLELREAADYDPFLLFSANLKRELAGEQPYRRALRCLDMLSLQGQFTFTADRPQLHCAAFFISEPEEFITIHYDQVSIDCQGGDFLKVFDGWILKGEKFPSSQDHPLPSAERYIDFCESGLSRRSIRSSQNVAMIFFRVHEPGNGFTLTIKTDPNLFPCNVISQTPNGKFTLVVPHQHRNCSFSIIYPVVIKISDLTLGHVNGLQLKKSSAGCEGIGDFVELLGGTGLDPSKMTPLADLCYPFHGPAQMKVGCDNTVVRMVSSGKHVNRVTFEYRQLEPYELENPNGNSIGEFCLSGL

Cytochrome P450 2C9 = Cytochrome P450 2C9 (Homo sapiens, UniProt P11712)
Escherichia coli = assay: microbe, parasite or virus in culture
[2] = biological target: T2, Corticotropin-releasing factor receptor 2/Corticotropin-releasing factor-binding protein; assay: Dose Response confirmation of uHTS hits for small molecule antagonists of the CRF-binding protein and CRF-R2 receptor complex.; type: functional; details: read-out: IC50_Mean
[3] = biological target: T3, Rac GTPase-activating protein 1 (Homo sapiens, UniProt Q9H0H5); assay: MgcRacGAP GTPase-activating activity inhibitors, confirmation, biochemical, ADP Hunter fluorescence, primary and confirmatory (AID 624330); type: functional
T3 sequence (Q9H0H5 whole entry): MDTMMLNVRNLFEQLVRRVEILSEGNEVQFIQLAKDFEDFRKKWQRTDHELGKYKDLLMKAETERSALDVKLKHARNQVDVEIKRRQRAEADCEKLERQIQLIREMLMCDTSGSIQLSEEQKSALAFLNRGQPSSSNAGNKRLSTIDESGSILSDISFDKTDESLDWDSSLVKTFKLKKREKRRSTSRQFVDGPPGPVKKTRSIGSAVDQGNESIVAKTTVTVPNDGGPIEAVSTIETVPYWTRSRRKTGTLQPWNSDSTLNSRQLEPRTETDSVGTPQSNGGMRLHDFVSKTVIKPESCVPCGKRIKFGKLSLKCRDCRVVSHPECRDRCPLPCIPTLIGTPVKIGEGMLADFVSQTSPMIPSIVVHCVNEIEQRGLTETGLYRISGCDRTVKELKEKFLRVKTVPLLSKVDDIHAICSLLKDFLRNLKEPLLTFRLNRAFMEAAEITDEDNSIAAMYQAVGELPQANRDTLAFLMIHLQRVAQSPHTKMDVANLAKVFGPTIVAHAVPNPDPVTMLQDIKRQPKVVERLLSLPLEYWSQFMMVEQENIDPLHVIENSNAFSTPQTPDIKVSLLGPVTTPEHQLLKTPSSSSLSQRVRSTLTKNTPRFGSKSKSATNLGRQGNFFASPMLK

[4] = biological target: T4, Zinc finger protein mex-5 (Caenorhabditis elegans, UniProt Q9XUB2); assay: MEX-5/TCR-2 RNA interaction inhibitors, dose response, biochemical, C. elegans, fluorescence polarization (AID 1960)
T4 sequence (Q9XUB2 whole entry): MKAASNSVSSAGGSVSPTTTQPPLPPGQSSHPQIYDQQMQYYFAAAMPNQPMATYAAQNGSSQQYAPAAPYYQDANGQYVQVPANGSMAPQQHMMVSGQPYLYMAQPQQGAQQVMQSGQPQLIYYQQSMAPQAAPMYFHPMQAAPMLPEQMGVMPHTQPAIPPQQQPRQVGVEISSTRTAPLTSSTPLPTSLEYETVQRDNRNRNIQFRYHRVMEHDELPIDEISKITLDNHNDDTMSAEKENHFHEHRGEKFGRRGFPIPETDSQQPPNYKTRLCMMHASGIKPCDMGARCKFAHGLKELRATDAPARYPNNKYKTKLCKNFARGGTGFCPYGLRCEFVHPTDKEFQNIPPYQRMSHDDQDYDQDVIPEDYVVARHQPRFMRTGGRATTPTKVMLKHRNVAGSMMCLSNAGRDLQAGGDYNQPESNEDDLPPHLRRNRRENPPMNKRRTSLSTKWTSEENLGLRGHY

[5] = AlphaScreen signal interference compounds, dose response, artefact control for ARNT-TACC3 interaction inhibitor project, biochemical, luminescence, cherry-pick (AID 651705); type: functional;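 further: AlphaScreen bead proximity signal that flags compounds interfering with the detection technology; potency reflects signal decrease which marks the compound as an assay artifact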
[6] = biological target: T5, RNA-binding protein pos-1 (Caenorhabditis elegans, UniProt G5EF15); assay: inhibitors of POS-1/mex-3 RNA binding, dose response, biochemical, fluorescence polarization (AID 1964);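 further: purified POS-1 fused to maltose binding protein made in E. coli; potency of compounds blocking POS-1 binding to fluorescent RNA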
T5 sequence (G5EF15 whole entry): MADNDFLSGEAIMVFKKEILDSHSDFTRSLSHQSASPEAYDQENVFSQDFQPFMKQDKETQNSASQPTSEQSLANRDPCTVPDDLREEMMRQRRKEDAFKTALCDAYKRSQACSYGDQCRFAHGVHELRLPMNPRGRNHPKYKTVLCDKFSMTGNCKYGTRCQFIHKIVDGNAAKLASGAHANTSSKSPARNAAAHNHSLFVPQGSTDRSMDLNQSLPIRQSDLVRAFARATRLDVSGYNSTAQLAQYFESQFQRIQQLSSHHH

[7] = biological target: Ras and Rab interactor 1/Tyrosine-protein kinase ABL1 (Homo sapiens, UniProt P00519+Q13671); type: functional;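 further: biochemical TR-FRET dose-response test measuring inhibition of binding between Rin1 and Abl proteins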
[8] = HeLa cell cytotoxicity, dose response, cytotoxicity control for MgcRacGAP inhibitor project (AID 624300); type: functional
[9] = StAR promoter reporter inhibition counter-screen, dose response, counter-screen for LRH-1 inverse agonist project, cell-based, luminescence, luciferase reporter (AID 651969); type: functional
[10] = biological target: Nuclear receptor subfamily 5 group A member 2 (Homo sapiens, UniProt O00482); type: functional, cell-based;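 further: HEK293T cells transfected with LRH-1 and a StAR promoter luciferase reporter; potency for inhibitors that lower LRH-1 driven reporter light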
Steroidogenic factor 1 = Steroidogenic factor 1 (Homo sapiens, UniProt Q13285); assay: Counterscreen for inverse agonists of the liver receptor homolog-1 (LRH-1; NR5A2): Luminescence-based cell-based high throughput dose response assay to identify inverse agonists of the Steroidogenic Factor 1 Nuclear Receptor (SF1; NR5A1).; type: functional
[11] = CRF-BP/CRF-R2 complex antagonists, dose response, cell-based, uHTS hits, 384-well (AID 651639); type: functional, Homo sapiens; details: read-out: IC50_Mean
[12] = HEp-2 cell cytotoxicity, dose response, cytotoxicity control for RSV inhibitor project, HTS (AID 2410); type: functional; details: human respiratory syncytial virus
[13] = biological target: T6, Hepatocyte nuclear factor 4-alpha (Homo sapiens, UniProt P41235); type: functional, cell-based;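 further: biochemical luminescence-based dose-response counterscreen measuring inhibition of HNF4 dimerization, run alongside a screen for blockers of ABHD5–perilipin-5 interaction; split luciferase complementation of HNF4 fusion proteins in cell lysate measuring dimerization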
T6 sequence (P41235 whole entry): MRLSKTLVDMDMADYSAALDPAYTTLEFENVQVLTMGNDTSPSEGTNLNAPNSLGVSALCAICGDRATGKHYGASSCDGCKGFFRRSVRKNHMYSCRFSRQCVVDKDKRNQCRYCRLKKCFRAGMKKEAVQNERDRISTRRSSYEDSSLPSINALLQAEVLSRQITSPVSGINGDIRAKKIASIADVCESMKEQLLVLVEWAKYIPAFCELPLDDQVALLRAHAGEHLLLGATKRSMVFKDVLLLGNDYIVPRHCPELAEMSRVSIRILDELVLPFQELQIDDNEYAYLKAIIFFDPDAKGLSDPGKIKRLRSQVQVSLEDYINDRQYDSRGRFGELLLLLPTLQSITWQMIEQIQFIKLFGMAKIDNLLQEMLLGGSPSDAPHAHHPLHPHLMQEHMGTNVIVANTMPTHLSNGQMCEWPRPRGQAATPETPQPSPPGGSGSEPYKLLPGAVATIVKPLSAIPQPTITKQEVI

Prothrombin = Prothrombin (Bos taurus, UniProt P00735); assay: thrombin inhibition, dose response, biochemical, fluorescence polarization, uHTS hits (AID 602369); type: functional
[14] = biological target: 26S proteasome non-ATPase regulatory subunit 14 (Homo sapiens, UniProt O00487); assay: inhibition of proteasome subunit RPN11 – biochemical, fluorescence polarization, uHTS hits, confirmation (AID 602368); type: functional
[15] = biological target: 72 kDa type IV collagenase (Homo sapiens, UniProt P08253); assay: Dose Response validation of uHTS RPN11 inhibitor hits using a MMP-2 Fluorescence assay.; type: functional
[16] = Counterscreen for inhibitors of Trypanosoma brucei methionyl tRNA synthetase (MetRS): Luminescence-based cell-based high throughput dose response assay to identify compounds that are cytotoxic to Jurkat human T lymphocyte cells.; type: functional

Steroidogenic factor 1, sequence (Q13285 whole entry): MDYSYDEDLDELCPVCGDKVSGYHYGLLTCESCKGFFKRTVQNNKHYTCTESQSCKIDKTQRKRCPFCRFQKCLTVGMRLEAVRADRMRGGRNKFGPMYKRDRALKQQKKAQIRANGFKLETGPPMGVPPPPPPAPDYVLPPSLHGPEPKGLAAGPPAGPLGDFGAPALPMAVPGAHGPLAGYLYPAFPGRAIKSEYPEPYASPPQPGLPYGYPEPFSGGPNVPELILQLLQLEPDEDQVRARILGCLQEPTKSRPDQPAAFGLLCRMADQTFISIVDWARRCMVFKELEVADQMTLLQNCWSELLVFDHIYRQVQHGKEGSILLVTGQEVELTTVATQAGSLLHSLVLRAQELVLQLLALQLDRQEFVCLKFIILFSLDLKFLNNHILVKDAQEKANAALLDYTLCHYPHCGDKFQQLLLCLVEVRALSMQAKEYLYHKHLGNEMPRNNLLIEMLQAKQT
Nuclear receptor subfamily 5 group A member 2, sequence (O00482 whole entry): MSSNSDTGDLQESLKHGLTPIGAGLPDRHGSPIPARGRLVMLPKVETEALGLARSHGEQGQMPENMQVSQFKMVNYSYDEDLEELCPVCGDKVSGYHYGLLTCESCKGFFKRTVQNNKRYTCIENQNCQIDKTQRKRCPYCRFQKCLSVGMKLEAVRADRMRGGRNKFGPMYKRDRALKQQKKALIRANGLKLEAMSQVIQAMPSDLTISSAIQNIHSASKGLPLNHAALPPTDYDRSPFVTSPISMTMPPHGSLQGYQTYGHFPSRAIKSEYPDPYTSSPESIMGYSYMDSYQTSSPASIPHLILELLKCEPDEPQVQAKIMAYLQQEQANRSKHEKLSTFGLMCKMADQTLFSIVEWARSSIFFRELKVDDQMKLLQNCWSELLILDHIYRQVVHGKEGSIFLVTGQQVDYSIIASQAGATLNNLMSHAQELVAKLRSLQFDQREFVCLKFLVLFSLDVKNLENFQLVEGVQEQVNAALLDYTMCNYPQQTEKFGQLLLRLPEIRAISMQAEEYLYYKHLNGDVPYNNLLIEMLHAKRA
72 kDa type IV collagenase, sequence (P08253 whole entry): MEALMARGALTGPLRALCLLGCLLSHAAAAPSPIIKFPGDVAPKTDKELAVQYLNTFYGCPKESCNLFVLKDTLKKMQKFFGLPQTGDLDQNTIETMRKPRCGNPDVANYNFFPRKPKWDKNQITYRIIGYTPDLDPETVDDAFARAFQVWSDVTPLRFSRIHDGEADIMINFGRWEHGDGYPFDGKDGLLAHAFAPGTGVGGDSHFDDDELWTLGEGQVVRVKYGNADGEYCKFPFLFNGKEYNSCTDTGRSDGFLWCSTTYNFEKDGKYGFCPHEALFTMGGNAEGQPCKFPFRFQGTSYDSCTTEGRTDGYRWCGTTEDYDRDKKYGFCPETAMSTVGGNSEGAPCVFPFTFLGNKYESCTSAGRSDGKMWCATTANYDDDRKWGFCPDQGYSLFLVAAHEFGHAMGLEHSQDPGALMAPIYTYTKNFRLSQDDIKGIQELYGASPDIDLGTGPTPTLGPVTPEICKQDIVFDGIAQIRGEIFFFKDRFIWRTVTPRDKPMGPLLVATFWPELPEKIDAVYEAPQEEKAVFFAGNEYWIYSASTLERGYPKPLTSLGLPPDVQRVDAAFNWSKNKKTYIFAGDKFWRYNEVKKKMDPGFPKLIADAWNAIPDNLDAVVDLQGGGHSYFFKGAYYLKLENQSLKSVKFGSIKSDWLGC
26S proteasome non-ATPase regulatory subunit 14, sequence (O00487 whole entry): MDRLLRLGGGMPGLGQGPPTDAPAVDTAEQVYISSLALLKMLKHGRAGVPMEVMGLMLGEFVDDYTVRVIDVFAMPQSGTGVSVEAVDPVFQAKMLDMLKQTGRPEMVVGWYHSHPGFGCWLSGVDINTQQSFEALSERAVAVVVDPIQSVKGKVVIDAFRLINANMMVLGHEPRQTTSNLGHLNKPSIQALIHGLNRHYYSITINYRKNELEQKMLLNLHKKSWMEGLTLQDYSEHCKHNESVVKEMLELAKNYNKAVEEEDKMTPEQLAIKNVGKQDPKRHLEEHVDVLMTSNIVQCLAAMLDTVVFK
Ras and Rab interactor 1/Tyrosine-protein kinase ABL1, sequence (P00519 whole entry): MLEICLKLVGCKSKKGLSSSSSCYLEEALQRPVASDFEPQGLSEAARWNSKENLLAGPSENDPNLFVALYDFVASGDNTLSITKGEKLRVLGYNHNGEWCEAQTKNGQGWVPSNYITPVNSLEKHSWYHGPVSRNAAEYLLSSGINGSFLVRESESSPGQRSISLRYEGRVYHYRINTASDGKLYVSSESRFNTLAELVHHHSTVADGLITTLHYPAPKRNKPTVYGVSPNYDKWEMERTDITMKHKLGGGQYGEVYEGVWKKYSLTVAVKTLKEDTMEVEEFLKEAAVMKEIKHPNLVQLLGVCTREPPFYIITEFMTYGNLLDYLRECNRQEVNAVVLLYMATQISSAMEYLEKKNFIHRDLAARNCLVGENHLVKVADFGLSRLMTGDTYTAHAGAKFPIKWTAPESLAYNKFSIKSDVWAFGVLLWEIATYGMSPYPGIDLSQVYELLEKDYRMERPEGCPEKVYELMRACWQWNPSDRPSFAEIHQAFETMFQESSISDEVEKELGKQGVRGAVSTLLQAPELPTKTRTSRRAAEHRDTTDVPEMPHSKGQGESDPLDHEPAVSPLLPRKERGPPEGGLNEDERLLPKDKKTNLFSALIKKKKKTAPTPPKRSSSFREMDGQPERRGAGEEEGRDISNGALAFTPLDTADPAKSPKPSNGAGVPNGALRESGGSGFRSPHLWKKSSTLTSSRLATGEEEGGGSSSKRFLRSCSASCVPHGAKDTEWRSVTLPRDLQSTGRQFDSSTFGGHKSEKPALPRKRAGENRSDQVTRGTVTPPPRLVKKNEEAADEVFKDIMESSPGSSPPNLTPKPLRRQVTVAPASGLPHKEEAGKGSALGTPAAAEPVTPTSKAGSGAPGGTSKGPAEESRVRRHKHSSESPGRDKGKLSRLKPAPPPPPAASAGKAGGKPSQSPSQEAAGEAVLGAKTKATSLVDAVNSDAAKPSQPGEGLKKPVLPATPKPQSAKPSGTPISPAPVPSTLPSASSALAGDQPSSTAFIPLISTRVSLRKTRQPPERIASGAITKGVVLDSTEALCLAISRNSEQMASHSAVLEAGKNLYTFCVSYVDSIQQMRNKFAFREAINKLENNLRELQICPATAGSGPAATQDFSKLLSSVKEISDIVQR
Ras and Rab interactor 1/Tyrosine-protein kinase ABL1, sequence (Q13671 whole entry): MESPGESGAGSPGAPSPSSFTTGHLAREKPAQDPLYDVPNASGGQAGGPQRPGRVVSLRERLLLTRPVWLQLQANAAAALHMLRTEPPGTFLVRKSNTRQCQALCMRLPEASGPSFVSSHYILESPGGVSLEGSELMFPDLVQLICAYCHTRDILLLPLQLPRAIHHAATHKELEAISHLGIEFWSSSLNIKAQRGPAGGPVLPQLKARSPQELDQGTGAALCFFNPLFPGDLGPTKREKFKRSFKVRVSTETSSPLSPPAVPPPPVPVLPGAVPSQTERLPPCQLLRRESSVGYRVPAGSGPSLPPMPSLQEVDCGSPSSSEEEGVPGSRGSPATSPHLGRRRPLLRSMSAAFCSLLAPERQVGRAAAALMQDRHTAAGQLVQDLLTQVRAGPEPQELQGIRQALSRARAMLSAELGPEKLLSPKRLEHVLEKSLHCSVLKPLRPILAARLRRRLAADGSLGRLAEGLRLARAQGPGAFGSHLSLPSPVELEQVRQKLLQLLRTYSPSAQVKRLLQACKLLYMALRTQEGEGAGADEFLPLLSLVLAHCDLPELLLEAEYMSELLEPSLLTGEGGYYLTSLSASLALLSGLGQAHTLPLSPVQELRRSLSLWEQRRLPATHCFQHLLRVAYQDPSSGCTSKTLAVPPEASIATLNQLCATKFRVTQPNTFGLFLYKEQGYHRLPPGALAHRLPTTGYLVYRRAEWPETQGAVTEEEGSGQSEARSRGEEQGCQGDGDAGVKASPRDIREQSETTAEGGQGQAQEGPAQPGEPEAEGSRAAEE
Cytochrome P450 2C9, sequence (P11712 whole entry): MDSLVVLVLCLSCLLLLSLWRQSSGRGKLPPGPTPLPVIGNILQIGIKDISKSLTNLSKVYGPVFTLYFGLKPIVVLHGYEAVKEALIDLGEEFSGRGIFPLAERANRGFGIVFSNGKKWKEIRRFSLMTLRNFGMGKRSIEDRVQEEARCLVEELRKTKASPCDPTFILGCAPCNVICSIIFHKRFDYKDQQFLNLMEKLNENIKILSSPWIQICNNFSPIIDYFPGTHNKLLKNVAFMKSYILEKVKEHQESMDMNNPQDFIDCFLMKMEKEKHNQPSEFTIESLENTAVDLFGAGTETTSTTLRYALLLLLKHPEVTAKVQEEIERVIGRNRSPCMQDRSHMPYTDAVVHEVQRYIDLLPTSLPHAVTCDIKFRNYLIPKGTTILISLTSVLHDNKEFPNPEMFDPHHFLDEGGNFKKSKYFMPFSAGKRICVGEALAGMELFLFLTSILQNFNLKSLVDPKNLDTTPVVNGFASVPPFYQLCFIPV

SMILES: COc1cccc(CN2CCN(Cc3cc(OC)c(OC)cc3[N+](=O)[O-])CC2)c1.O=C(O)C(=O)O
AC50 (Cytochrome P450 1A2): 14.1 µM (inconclusive)
EC50 [1]: > 53 µM (inactive)
AC50 (Cytochrome P450 2C9): inconclusive
AC50 (Escherichia coli): > 150 µM (inactive)
IC50 [2]: > 47.1 µM (inactive)
IC50 [3]: 56.8 µM (active)

EC50 [4]: > 300 µM (inconclusive)
EC50 [6]: > 300 µM (not active)
SMILES: O=C(NNc1ccccn1)C(=O)NNS(=O)(=O)c1ccc(F)cc1
AC50 [5]: 122 µM (active)

SMILES: Oc1nc2ccccc2n1C1CCN(C(c2nnnn2-c2ccc3c(c2)OCCO3)C2CC2)CC1 (stereo not given)
IC50 [7]: 40.9 µM (inactive)

IC50 [3]: 64.2 µM (active)
SMILES: COc1cc(/C=N/Nc2nn3cnnc3c3ccccc23)ccc1O
CC50 [8]: 100 µM (active)

SMILES: Cc1cc([N+](=O)[O-])ccc1NC(=O)CSc1nnc(C)n1C
IC50 [9]: 35.8 µM (inactive)
IC50 [10]: 11.9 µM (inactive)
IC50 (Steroidogenic factor 1): 11.9 µM (inactive)

EC50 [1]: > 53 µM (inactive)
IC50 [11]: 9.87 µM (active)
IC50 [2]: 6.5 µM (active)
SMILES: CC(C)(C)OC(=O)N1CCC(c2cc(O)n3ncc(C(=O)NC4CCCC4)c3n2)CC1

IC50 [7]: > 73.5 µM (inactive)
SMILES: Cc1nc(Nc2cccc(O)c2)c2c3c(sc2n1)CCC3
CC50 [12]: 12.7 µM (active)

SMILES: COC(=O)c1sc(-c2ccc(C(C)(C)C)cc2)cc1NC(=O)COCC(=O)O
EC50 [1]: > 53 µM (inactive)
IC50 [11]: > 20 µM (inactive)
IC50 [2]: 11 µM (active)

SMILES: O=C(Nc1ccccc1C(=O)Nc1nccs1)c1ccccc1
IC50 [9]: 26.4 µM (inactive)
IC50 [10]: 9.83 µM (active)
IC50 (Steroidogenic factor 1): 9.51 µM (active)

IC50 [13]: 2.56 µM (active)
SMILES: Cc1cccc(C)c1NC(=O)C(c1ccc(C(F)(F)F)cc1)n1c(=O)c(-c2ccco2)nc2ccccc21 (stereo not given)

SMILES: COc1ccc(N2/C(=C/C(C)=O)NC(=O)c3c(C)cc(C)nc32)cc1
IC50 [9]: 35.9 µM (inactive)
IC50 [10]: 8.47 µM (active)
IC50 (Steroidogenic factor 1): 5.42 µM (active)

SMILES: C=Cc1ccc(Cn2c(C(=O)O)c(C=O)c3ccccc32)cc1
IC50 (Prothrombin): 39.1 µM (active)
IC50 [14]: 12.6 µM (active)
IC50 [15]: > 100 µM (inactive)

IC50 (Prothrombin): > 100 µM (inactive)
IC50 [14]: 47 µM (active)
IC50 [15]: 23.6 µM (active)
SMILES: CCc1ccc(OCC(=O)NNC(=O)c2cc(S(=O)(=O)N(C)C)ccc2N2CCCC2)cc1

SMILES: O=S(=O)(N[C@@H]1CC[C@H](CCn2cc(-c3ccccn3)nn2)O[C@@H]1CO)c1cccc(F)c1
AC50 [5]: 79.4 µM (active)

IC50 [13]: 6 µM (active)
SMILES: COc1ccc(OCc2cn(CC(=O)c3ccc(O)cc3)nn2)cc1

SMILES: O=C(N[C@@H]1CC[C@@H](CCn2cc(-c3ccccn3)nn2)O[C@H]1CO)c1ccncc1
AC50 [5]: 72.8 µM (active)

SMILES: O=C(OCC(=O)c1c[nH]c2ccccc12)c1ccc(OC(F)F)cc1
IC50 [16]: 83.3 µM (inactive)
